{"source": "BindingDB's records for PubMed 35063731", "about": "(Chinese Academy of Sciences, 2022)", "key": {"[1]": {"test": "Inhibition of influenza A virus Neuraminidase using 2-(4-methylumbelliferyl)-a-D-acetylneuraminic acid as substrate incubated for 30 mins by fluorescence based analysis"}, "Maltase-glucoamylase [2]": {"biological_target": "T1, Maltase-glucoamylase (Homo sapiens, UniProt O43451)", "T1 sequence (O43451 whole entry)": "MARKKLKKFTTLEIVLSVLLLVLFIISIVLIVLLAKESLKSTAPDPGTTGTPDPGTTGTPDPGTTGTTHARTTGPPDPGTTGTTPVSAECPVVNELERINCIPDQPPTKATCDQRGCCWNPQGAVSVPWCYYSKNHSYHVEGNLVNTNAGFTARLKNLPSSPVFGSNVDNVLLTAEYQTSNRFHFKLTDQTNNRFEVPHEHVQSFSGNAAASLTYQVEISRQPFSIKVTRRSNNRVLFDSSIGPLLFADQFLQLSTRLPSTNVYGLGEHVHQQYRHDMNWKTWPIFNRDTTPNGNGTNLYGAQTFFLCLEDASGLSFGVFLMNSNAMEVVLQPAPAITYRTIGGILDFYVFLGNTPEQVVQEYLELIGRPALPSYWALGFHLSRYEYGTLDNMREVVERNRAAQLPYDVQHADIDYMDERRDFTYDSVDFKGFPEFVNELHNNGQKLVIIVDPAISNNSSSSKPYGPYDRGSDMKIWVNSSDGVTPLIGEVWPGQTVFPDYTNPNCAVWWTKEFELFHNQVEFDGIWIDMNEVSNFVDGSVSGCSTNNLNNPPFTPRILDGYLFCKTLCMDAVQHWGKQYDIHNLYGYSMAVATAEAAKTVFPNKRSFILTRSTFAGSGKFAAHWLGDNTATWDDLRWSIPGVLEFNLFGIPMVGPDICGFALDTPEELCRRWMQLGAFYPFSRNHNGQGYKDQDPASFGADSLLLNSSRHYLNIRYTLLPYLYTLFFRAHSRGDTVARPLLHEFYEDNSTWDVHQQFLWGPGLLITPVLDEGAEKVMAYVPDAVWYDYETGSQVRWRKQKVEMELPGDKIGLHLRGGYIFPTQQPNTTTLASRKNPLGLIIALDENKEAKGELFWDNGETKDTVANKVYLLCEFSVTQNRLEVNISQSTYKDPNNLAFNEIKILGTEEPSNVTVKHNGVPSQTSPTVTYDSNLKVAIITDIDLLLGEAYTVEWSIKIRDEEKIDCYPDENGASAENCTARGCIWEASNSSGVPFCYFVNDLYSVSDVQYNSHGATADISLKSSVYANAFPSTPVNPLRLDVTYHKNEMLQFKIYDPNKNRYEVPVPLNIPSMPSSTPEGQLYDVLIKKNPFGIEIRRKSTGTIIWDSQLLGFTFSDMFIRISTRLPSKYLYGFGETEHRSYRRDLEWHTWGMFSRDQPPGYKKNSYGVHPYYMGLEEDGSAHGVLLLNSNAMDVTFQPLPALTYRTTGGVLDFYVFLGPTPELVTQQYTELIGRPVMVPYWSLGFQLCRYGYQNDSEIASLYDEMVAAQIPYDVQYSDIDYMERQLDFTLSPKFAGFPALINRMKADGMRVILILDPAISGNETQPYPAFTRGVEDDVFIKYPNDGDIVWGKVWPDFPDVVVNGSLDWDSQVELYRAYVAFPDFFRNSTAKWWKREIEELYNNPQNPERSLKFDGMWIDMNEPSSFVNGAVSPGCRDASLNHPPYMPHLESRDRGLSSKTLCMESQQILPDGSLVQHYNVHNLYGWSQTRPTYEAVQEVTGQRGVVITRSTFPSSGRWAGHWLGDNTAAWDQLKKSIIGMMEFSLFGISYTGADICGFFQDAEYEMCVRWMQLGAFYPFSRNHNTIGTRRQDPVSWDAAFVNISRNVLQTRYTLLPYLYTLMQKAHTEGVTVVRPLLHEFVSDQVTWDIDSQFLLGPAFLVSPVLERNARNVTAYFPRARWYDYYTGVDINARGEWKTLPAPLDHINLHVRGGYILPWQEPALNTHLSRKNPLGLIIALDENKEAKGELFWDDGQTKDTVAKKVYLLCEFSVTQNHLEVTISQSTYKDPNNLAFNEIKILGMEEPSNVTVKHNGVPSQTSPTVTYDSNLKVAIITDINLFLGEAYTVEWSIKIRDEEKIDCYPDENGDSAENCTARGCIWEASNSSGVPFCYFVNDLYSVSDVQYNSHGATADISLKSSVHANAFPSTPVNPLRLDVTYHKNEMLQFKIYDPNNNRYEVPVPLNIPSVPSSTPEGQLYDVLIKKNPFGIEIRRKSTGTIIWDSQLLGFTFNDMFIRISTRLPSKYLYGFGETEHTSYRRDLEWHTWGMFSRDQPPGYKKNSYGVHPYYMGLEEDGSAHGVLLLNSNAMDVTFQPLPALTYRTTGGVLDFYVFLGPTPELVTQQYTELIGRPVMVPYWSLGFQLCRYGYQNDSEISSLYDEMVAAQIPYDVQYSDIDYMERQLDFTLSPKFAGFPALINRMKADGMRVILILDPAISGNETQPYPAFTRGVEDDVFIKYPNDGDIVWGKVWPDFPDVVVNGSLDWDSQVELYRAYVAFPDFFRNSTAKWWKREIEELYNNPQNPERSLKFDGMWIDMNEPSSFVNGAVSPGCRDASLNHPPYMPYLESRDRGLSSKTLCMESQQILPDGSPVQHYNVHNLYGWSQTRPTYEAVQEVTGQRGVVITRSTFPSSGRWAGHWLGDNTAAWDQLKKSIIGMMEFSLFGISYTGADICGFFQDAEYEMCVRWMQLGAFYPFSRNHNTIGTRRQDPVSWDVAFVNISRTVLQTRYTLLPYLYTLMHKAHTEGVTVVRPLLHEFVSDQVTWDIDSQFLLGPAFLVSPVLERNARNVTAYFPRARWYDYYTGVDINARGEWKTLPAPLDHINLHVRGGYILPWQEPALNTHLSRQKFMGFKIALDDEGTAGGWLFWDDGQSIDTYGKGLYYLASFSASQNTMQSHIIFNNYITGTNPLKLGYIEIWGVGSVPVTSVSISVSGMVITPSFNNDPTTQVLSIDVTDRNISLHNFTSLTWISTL", "test": "Inhibition of alpha-Glucosidase (unknown origin) using pNPG as substrate incubated for 20 mins by micro plate reader analysis"}, "Maltase-glucoamylase [3]": {"biological_target": "T1, Maltase-glucoamylase", "test": "Inhibition of alpha-glucosidase (unknown origin)"}}, "note": "pIC50: −log10 of the molar value.", "data": [{"smiles": "COC(=O)[C@@]1(C(=O)C(C)=O)C(C)=C(C)C=C2[C@]3(C=O)CC[C@H](OC(C)=O)C(C)(C)[C@H]3CC[C@@]21C", "values": [{"measurement": "pIC50", "setting": "[1]", "result": 8.09}]}, {"smiles": "COc1cc2c(c(O)c1CO)C(=O)OC[C@@H]2O", "values": [{"measurement": "pIC50", "setting": "Maltase-glucoamylase [2]", "result": 2.85}]}, {"smiles": "CC(C)=CCc1cc(C[C@@]2(C(=O)O)OC(=O)C(OC(C)(C)[C@@H](O)Cc3cc(C[C@@]4(C(=O)O)OC(=O)C(O)=C4c4ccc(O)cc4)ccc3O)=C2c2ccc(O)cc2)ccc1O", "values": [{"measurement": "pIC50", "setting": "Maltase-glucoamylase [3]", "result": 4.98}]}]}
